Structures are written as SMILES. ≈ marks a conversion by molar mass, not a printed value.

For orientation: solubility means the concentration that dissolves in the medium under given conditions. A high value points to a readily soluble substance.

The target of one data set is T1, glucocerebrosidase (Gcase) (Homo sapiens, UniProt P04062).
T1 construct: micellar solution containing 10 nM GCase and 100 nM saposin C (Enzo ALX-201-262-C050)
T1 sequence (P04062 40-536): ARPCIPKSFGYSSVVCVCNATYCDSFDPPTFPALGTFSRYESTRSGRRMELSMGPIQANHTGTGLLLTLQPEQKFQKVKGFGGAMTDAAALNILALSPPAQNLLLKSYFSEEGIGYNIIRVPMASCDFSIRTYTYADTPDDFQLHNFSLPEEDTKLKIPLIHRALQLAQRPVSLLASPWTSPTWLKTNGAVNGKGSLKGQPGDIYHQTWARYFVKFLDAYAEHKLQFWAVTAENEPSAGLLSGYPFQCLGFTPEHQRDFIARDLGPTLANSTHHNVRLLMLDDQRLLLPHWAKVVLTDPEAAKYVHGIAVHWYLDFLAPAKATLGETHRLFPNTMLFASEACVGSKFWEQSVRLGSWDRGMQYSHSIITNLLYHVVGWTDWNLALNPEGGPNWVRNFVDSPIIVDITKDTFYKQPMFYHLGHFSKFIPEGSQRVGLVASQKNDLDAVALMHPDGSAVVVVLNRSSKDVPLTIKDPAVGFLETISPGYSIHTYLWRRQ
Put plainly: Glucocerebrosidase (Gcase) activation assay, 4-methylumbelliferyl-beta-D-glucopyranoside substrate, with saposin C. The format is biochemical. To be noted: read-out: Percent Gcase Activation 0.1 μM Test Compound. As to the method:
A 484 μL aliquot of a 1.0 mg/mL solution of phosphatidylserine (PS) (Sigma P7769) in chloroform was evaporated under a stream of nitrogen for 1 hour. The lipid film was dissolved over 4 minutes of vigorous vortexing in 40 mL of 176 mM K2HPO4/50 mM citric acid (pH 4.7) containing 7.5 μL of triton X-100, resulting in a mixed micellar preparation with a composition of 0.32 mM triton and 0.37 mol % PS. 4-Methylumbelliferyl-beta-D-glucopyranoside (ACROS-337025000) was dissolved in the micellar solution to a final concentration of 2 mM for use as the reaction substrate.
Test compounds were diluted to the desired concentrations with dimethylsulfoxide (DMSO) from 10 mM stocks, and 0.41 μL of the DMSO compound mixture was added to 100 μL of micellar solution containing 10 nM GCase and 100 nM saposin C (Enzo ALX-201-262-C050). Pre-incubation was allowed to occur for 30 minutes at room temperature, after which the reaction was initiated by combining 25 μL of substrate solution with 25 μL of compound/GCase/saposin mixture. The reaction proceeded for 15 minutes at room temperature and was stopped by adding 150 μL of 1M glycine, pH 12.5. The endpoint of the reaction was monitored by measuring fluorescence intensity (excitation: 365 nm; emission: 440 nm) on a SpectraMax i3 instrument (Molecular Devices). Test compounds were screened at 1.0 and 0.1 μM final concentration, and subsequent 8-point dose response curves were obtained using 3-fold dilutions from a maximum final concentration of 5 μM.
Consider `Cc1cccc2ncc(C(=O)Nc3ccc(N4CCCCC4)cc3)c(=O)n12`, for which the activation at 0.1 µM is less than 5%.

For the compound `C#Cc1ccc(NC(=O)c2cnc3cccc(C)n3c2=O)cc1`, the activation at 0.1 µM was less than 5%.

Take `CCCCC1CCC(NC(=O)c2cnc3cccc(C)n3c2=O)CC1` (stereo not drawn): the activation at 0.1 µM is 5 to 20%.

Consider `O=C(Nc1ccc2c(c1)CCC2)c1cnc2n(c1=O)CCS2`, for which the activation at 0.1 µM was less than 5%.

On to `O=C(NC1CCC2(CCCCO2)CC1)c1cnc2n(c1=O)CCS2` (stereo not drawn), for which the activation at 0.1 µM was less than 5%.

For the compound `CC(C)c1ccc(NC(=O)c2cnc3sccn3c2=O)cn1`, the activation at 0.1 µM is less than 5%.

For the compound `Cc1cccc2ncc(C(=O)NC3CCc4ccccc43)c(=O)n12` (stereo not drawn), the activation at 0.1 µM is less than 5%.

Turning to `CCC(C)c1ccc(NC(=O)c2cnc3cccc(C)n3c2=O)cc1` (stereo not drawn), the activation at 0.1 µM was 5 to 20%.

`O=C(NC1CCc2ccccc21)c1cnc2n(c1=O)CCS2` (stereo not drawn): the activation at 0.1 µM is less than 5%.

`Cc1cccc2ncc(C(=O)Nc3ccc(C4CCCCC4)cc3)c(=O)n12`: the activation at 0.1 µM is less than 5%.

Regarding `CCC(C)c1ccc(NC(=O)c2cnc3n(c2=O)CCS3)cc1` (stereo not drawn), the activation at 0.1 µM is 5 to 20%.

In the case of `C#Cc1ccc(NC(=O)c2cnc3n(c2=O)CCS3)cc1`, the activation at 0.1 µM was less than 5%.

Take `CC(Cc1ccc(Cl)cc1)NC(=O)c1cnc2n(c1=O)CCS2` (stereo not drawn): the activation at 0.1 µM is less than 5%.

In the case of `O=C(NC1CCCCCC1)c1cnc2n(c1=O)CCS2`, the activation at 0.1 µM was less than 5%.

On to `Cc1cccc2ncc(C(=O)Nc3ccc(-n4ccnc4)cc3)c(=O)n12`, for which the activation at 0.1 µM was less than 5%.

For `CCN1CCN(c2ccc(NC(=O)c3cnc4n(c3=O)CCS4)cc2)CC1`, the activation at 0.1 µM is less than 5%.

For the compound `O=C(Nc1ccc(-n2ccnc2)cc1)c1cnc2n(c1=O)CCS2`, the activation at 0.1 µM was less than 5%.

For `C#Cc1ccc(NC(=O)c2cnc3sccn3c2=O)cc1`, the activation at 0.1 µM is 5 to 20%.

For the compound `O=C(NCC1COc2ccccc2O1)c1cnc2sccn2c1=O` (stereo not drawn), the activation at 0.1 µM was less than 5%.

With `CC(C)c1ccc(NC(=O)c2cnc3sccn3c2=O)nc1`, the activation at 0.1 µM was less than 5%.

Consider `CN1Cc2ccc(NC(=O)c3cnc4n(c3=O)CCS4)cc2C1`, for which the activation at 0.1 µM is less than 5%.

The same data set, now with this note: read-out: Percent Gcase Activation 1 μM Test Compound.
On to `Cc1cccc2ncc(C(=O)Nc3ccc(N4CCCCC4)cc3)c(=O)n12`, for which the activation at 1 µM is less than 5%.

With `C#Cc1ccc(NC(=O)c2cnc3cccc(C)n3c2=O)cc1`, the activation at 1 µM fell in the range of 5 to 20%.

Regarding `CCCCC1CCC(NC(=O)c2cnc3cccc(C)n3c2=O)CC1` (stereo not drawn), the activation at 1 µM is more than 20%.

For the compound `O=C(Nc1ccc2c(c1)CCC2)c1cnc2n(c1=O)CCS2`, the activation at 1 µM lay within 5 to 20%.

For the compound `O=C(NC1CCC2(CCCCO2)CC1)c1cnc2n(c1=O)CCS2` (stereo not drawn), the activation at 1 µM was less than 5%.

As for `CC(C)c1ccc(NC(=O)c2cnc3sccn3c2=O)cn1`, the activation at 1 µM was less than 5%.

For the compound `Cc1cccc2ncc(C(=O)NC3CCc4ccccc43)c(=O)n12` (stereo not drawn), the activation at 1 µM was more than 20%.

As to `CCC(C)c1ccc(NC(=O)c2cnc3cccc(C)n3c2=O)cc1` (stereo not drawn), the activation at 1 µM was more than 20%.

Turning to `O=C(NC1CCc2ccccc21)c1cnc2n(c1=O)CCS2` (stereo not drawn), the activation at 1 µM fell in the range of 5 to 20%.

As for `Cc1cccc2ncc(C(=O)Nc3ccc(C4CCCCC4)cc3)c(=O)n12`, the activation at 1 µM was more than 20%.

Take `CCC(C)c1ccc(NC(=O)c2cnc3n(c2=O)CCS3)cc1` (stereo not drawn): the activation at 1 µM was more than 20%.

In the case of `C#Cc1ccc(NC(=O)c2cnc3n(c2=O)CCS3)cc1`, the activation at 1 µM was 5 to 20%.

As for `CC(Cc1ccc(Cl)cc1)NC(=O)c1cnc2n(c1=O)CCS2` (stereo not drawn), the activation at 1 µM was 5 to 20%.

For `O=C(NC1CCCCCC1)c1cnc2n(c1=O)CCS2`, the activation at 1 µM is 5 to 20%.

With `Cc1cccc2ncc(C(=O)Nc3ccc(-n4ccnc4)cc3)c(=O)n12`, the activation at 1 µM lay in the range of 5 to 20%.

Turning to `CCN1CCN(c2ccc(NC(=O)c3cnc4n(c3=O)CCS4)cc2)CC1`, the activation at 1 µM fell in the range of 5 to 20%.

With `O=C(Nc1ccc(-n2ccnc2)cc1)c1cnc2n(c1=O)CCS2`, the activation at 1 µM is less than 5%.

Regarding `C#Cc1ccc(NC(=O)c2cnc3sccn3c2=O)cc1`, the activation at 1 µM is more than 20%.

As for `O=C(NCC1COc2ccccc2O1)c1cnc2sccn2c1=O` (stereo not drawn), the activation at 1 µM is less than 5%.

Take `CC(C)c1ccc(NC(=O)c2cnc3sccn3c2=O)nc1`: the activation at 1 µM fell in the range of 5 to 20%.

With `CN1Cc2ccc(NC(=O)c3cnc4n(c3=O)CCS4)cc2C1`, the activation at 1 µM was 5 to 20%.

Test system in another data set: not listed separately
Put plainly: Compound solubility in water.
Settings: not given
The format is physicochemical.
The compound `Cc1cccc2ncc(C(=O)Nc3ccc(N4CCCCC4)cc3)c(=O)n12` returned a solubility of 1.4 µg/mL (≈ 3.86 µM).

Regarding `C#Cc1ccc(NC(=O)c2cnc3cccc(C)n3c2=O)cc1`, the solubility was 1.5 µg/mL (≈ 4.95 µM).

For the compound `CCCCC1CCC(NC(=O)c2cnc3cccc(C)n3c2=O)CC1` (stereo not drawn), the solubility was found to be 0.4 µg/mL (≈ 1.17 µM). Against the preceding compound, the solubility is about 3.8-fold lower.

For the compound `O=C(Nc1ccc2c(c1)CCC2)c1cnc2n(c1=O)CCS2`, the solubility was 0.3 µg/mL (≈ 0.957 µM).

On to `O=C(NC1CCC2(CCCCO2)CC1)c1cnc2n(c1=O)CCS2` (stereo not drawn), for which the solubility came out at 29.5 µg/mL (≈ 84.4 µM).

Take `CC(C)c1ccc(NC(=O)c2cnc3sccn3c2=O)cn1`: the solubility stood at 13.8 µg/mL (≈ 43.9 µM).

In the case of `Cc1cccc2ncc(C(=O)NC3CCc4ccccc43)c(=O)n12` (stereo not drawn), the solubility is 6.8 µg/mL (≈ 21.3 µM). This solubility is about 2-fold lower than that of the compound before.

In turn, `CCC(C)c1ccc(NC(=O)c2cnc3cccc(C)n3c2=O)cc1` (stereo not drawn) had a solubility of 1 µg/mL (≈ 2.98 µM).

Consider `O=C(NC1CCc2ccccc21)c1cnc2n(c1=O)CCS2` (stereo not drawn), for which the concentration in solution (solubility) came to 17.6 µg/mL (≈ 56.2 µM).

Consider `Cc1cccc2ncc(C(=O)Nc3ccc(C4CCCCC4)cc3)c(=O)n12`, for which the solubility is 0.2 µg/mL (≈ 0.553 µM).

Compound `CCC(C)c1ccc(NC(=O)c2cnc3n(c2=O)CCS3)cc1` (stereo not drawn) yielded a solubility of 0.3 µg/mL (≈ 0.911 µM).

Turning to `C#Cc1ccc(NC(=O)c2cnc3n(c2=O)CCS3)cc1`, the solubility is 1.5 µg/mL (≈ 5.04 µM).

Regarding `CC(Cc1ccc(Cl)cc1)NC(=O)c1cnc2n(c1=O)CCS2` (stereo not drawn), the solubility worked out at 16.7 µg/mL (≈ 47.7 µM).

For the compound `O=C(NC1CCCCCC1)c1cnc2n(c1=O)CCS2`, the solubility is 20.8 µg/mL (≈ 70.9 µM).

`Cc1cccc2ncc(C(=O)Nc3ccc(-n4ccnc4)cc3)c(=O)n12`: the concentration in solution (solubility) was 1.2 µg/mL (≈ 3.47 µM).

Turning to `CCN1CCN(c2ccc(NC(=O)c3cnc4n(c3=O)CCS4)cc2)CC1`, the solubility turned out to be 34.8 µg/mL (≈ 90.3 µM).

In the case of `O=C(Nc1ccc(-n2ccnc2)cc1)c1cnc2n(c1=O)CCS2`, the concentration in solution (solubility) came to 0.8 µg/mL (≈ 2.36 µM).

The compound `C#Cc1ccc(NC(=O)c2cnc3sccn3c2=O)cc1` yielded a solubility of 3.4 µg/mL (≈ 11.5 µM). This solubility is about 4.2-fold higher than that of the compound before.

Regarding `O=C(NCC1COc2ccccc2O1)c1cnc2sccn2c1=O` (stereo not drawn), the solubility was found to be 22.6 µg/mL (≈ 65.8 µM).

`CC(C)c1ccc(NC(=O)c2cnc3sccn3c2=O)nc1` registered a solubility of 2.7 µg/mL (≈ 8.59 µM).

`CN1Cc2ccc(NC(=O)c3cnc4n(c3=O)CCS4)cc2C1` returned a solubility of 32.4 µg/mL (≈ 98.7 µM). This solubility lies about 12-fold higher than the previous one.
